From PubChem BioAssay (NCI)
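Five compound concentrations were applied to cells in 96-well plates for 48 hours; endpoints were derived by simple linear interpolation of the resulting dose-response curve. Abbreviation: GI50, concentration required for 50% inhibition of growth. At the TGI there is no net growth.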

Key:
Assay in all cases: inhibition of tumour cell growth, NCI panel, 48 h
HOP-92 NSCLC = system: HOP-92 NSCLC
SK-MEL-28 melanoma = system: SK-MEL-28 melanoma
SR leukemia = system: SR leukemia
SNB-75 CNS = system: SNB-75 CNS
RXF 393 renal = system: RXF 393 renal
ACHN renal = system: ACHN renal
OVCAR-5 ovarian = system: OVCAR-5 ovarian
SF-295 CNS = system: SF-295 CNS
OVCAR-3 ovarian = system: OVCAR-3 ovarian
CCRF-CEM leukemia = system: CCRF-CEM leukemia
SK-MEL-2 melanoma = system: SK-MEL-2 melanoma
OVCAR-4 ovarian = system: OVCAR-4 ovarian
KM12 colon = system: KM12 colon
NCI-H226 lung = system: NCI-H226 lung
COLO 205 colon = system: COLO 205 colon
A498 renal = system: A498 renal
SF-268 CNS = system: SF-268 CNS
SK-OV-3 ovarian = system: SK-OV-3 ovarian
A549 NSCLC = system: A549 NSCLC
UACC-257 melanoma = system: UACC-257 melanoma
SW-620 colon = system: SW-620 colon
HCT-116 colon = system: HCT-116 colon
HOP-62 NSCLC = system: HOP-62 NSCLC
NCI-H460 lung = system: NCI-H460 lung
TK-10 renal = system: TK-10 renal
786-0 renal = system: 786-0 renal
SK-MEL-5 melanoma = system: SK-MEL-5 melanoma
BT-549 breast = system: BT-549 breast
LOX IMVI melanoma = system: LOX IMVI melanoma
NCI-H23 lung = system: NCI-H23 lung
OVCAR-8 ovarian = system: OVCAR-8 ovarian
U251 CNS = system: U251 CNS
MOLT-4 leukemia = system: MOLT-4 leukemia
UACC-62 melanoma = system: UACC-62 melanoma
HT29 colon = system: HT29 colon
DU-145 prostate = system: DU-145 prostate
MCF7 breast = system: MCF7 breast
NCI/ADR-RES ovarian = system: NCI/ADR-RES ovarian
NCI-H522 lung = system: NCI-H522 lung
SF-539 CNS = system: SF-539 CNS
HL-60(TB) leukemia = system: HL-60(TB) leukemia
K-562 leukemia = system: K-562 leukemia
HCC-2998 colon = system: HCC-2998 colon
RPMI-8226 leukemia = system: RPMI-8226 leukemia
M14 melanoma = system: M14 melanoma
SNB-19 CNS = system: SNB-19 CNS
MDA-MB-435 = system: MDA-MB-435
PC-3 prostate = system: PC-3 prostate
MALME-3M melanoma = system: MALME-3M melanoma
CAKI-1 renal = system: CAKI-1 renal
MDA-MB-231 breast = system: MDA-MB-231 breast
UO-31 renal = system: UO-31 renal
HS 578T breast = system: HS 578T breast
IGROV1 ovarian = system: IGROV1 ovarian
HCT-15 colon = system: HCT-15 colon
SN12C renal = system: SN12C renal
T-47D breast = system: T-47D breast
EKVX NSCLC = system: EKVX NSCLC

## Cc1cc(NC(=O)NCCOc2ccc(N3C(N)=NC(N)=NC3(C)C)cc2Cl)ccc1S(=O)(=O)F
HOP-92 NSCLC
  GI50: 5.07 µM
  TGI: 22.2 µM
SK-MEL-28 melanoma
  GI50: 3.59 µM
  TGI: > 91.7 µM
SR leukemia
  GI50: 0.493 µM
  TGI: 40 µM
SNB-75 CNS
  GI50: 1.53 µM
  TGI: 48.3 µM
RXF 393 renal
  GI50: 2.05 µM
  TGI: > 100 µM
ACHN renal
  GI50: 25 µM
  TGI: > 100 µM
OVCAR-5 ovarian
  GI50: 1.44 µM
  TGI: > 100 µM
SF-295 CNS
  GI50: 5.16 µM
  TGI: > 85.1 µM
OVCAR-3 ovarian
  GI50: 5.24 µM
  TGI: > 71 µM
CCRF-CEM leukemia
  GI50: 0.805 µM
  TGI: > 67.6 µM
SK-MEL-2 melanoma
  GI50: 5.29 µM
  TGI: 27.1 µM
OVCAR-4 ovarian
  GI50: 2.75 µM
  TGI: > 77.5 µM
KM12 colon
  GI50: 1.04 µM
  TGI: > 44.3 µM
NCI-H226 lung
  GI50: 8.57 µM
  TGI: > 100 µM
COLO 205 colon
  GI50: 1.4 µM
  TGI: 30.4 µM
A498 renal
  GI50: 10.2 µM
  TGI: > 100 µM
SF-268 CNS
  GI50: 1.64 µM
  TGI: 99.5 µM
SK-OV-3 ovarian
  GI50: 12 µM
  TGI: > 100 µM
A549 NSCLC
  GI50: 1.4 µM
  TGI: > 68.3 µM
UACC-257 melanoma
  GI50: 4.1 µM
  TGI: > 49.1 µM
SW-620 colon
  GI50: 0.661 µM
  TGI: > 100 µM
HCT-116 colon
  GI50: 0.545 µM
  TGI: > 100 µM
HOP-62 NSCLC
  GI50: 8.36 µM
  TGI: > 73.2 µM
NCI-H460 lung
  GI50: 0.391 µM
  TGI: 17.6 µM
TK-10 renal
  GI50: 6.23 µM
  TGI: > 100 µM
786-0 renal
  GI50: 5.02 µM
  TGI: > 100 µM
SK-MEL-5 melanoma
  GI50: 1.19 µM
  TGI: 11.4 µM
BT-549 breast
  GI50: 6.31 µM
  TGI: > 76.8 µM
LOX IMVI melanoma
  GI50: 0.74 µM
  TGI: > 100 µM
NCI-H23 lung
  GI50: 2.76 µM
  TGI: > 100 µM
OVCAR-8 ovarian
  GI50: 4.91 µM
  TGI: > 100 µM
U251 CNS
  GI50: 0.716 µM
  TGI: > 72.9 µM
MOLT-4 leukemia
  GI50: 4.31 µM
  TGI: > 100 µM
UACC-62 melanoma
  GI50: 0.726 µM
  TGI: 35.2 µM
HT29 colon
  GI50: 0.484 µM
  TGI: 13.8 µM
DU-145 prostate
  GI50: 2.53 µM
  TGI: > 100 µM
MCF7 breast
  GI50: 1.7 µM
  TGI: 50.3 µM
NCI/ADR-RES ovarian
  GI50: > 100 µM
  TGI: > 100 µM
NCI-H522 lung
  GI50: 2.54 µM
  TGI: 17.7 µM
SF-539 CNS
  GI50: 2.93 µM
  TGI: 18.1 µM
HL-60(TB) leukemia
  GI50: 1.8 µM
  TGI: 36.8 µM
K-562 leukemia
  GI50: 0.599 µM
  TGI: > 100 µM
HCC-2998 colon
  GI50: 2.96 µM
  TGI: > 100 µM
RPMI-8226 leukemia
  GI50: 3.46 µM
  TGI: > 55 µM
M14 melanoma
  GI50: 4.1 µM
  TGI: > 100 µM
SNB-19 CNS
  GI50: 4.31 µM
  TGI: > 100 µM
MDA-MB-435
  GI50: 0.626 µM
  TGI: > 100 µM
PC-3 prostate
  GI50: 0.143 µM
  TGI: 22.3 µM
MALME-3M melanoma
  GI50: 7.46 µM
  TGI: 41.1 µM
CAKI-1 renal
  GI50: 55.4 µM
  TGI: > 100 µM
MDA-MB-231 breast
  GI50: 6.11 µM
  TGI: > 77.9 µM
UO-31 renal
  GI50: > 100 µM
  TGI: > 100 µM
HS 578T breast
  GI50: 9.84 µM
  TGI: 76.8 µM
IGROV1 ovarian
  GI50: 0.545 µM
  TGI: > 100 µM
HCT-15 colon
  GI50: 49 µM
  TGI: > 100 µM
SN12C renal
  GI50: 1.85 µM
  TGI: > 100 µM
T-47D breast
  GI50: 5.13 µM
  TGI: 74.9 µM

## CN1CCN(C2=C(Cl)C(=O)c3ccccc3C2=O)CC1
HOP-92 NSCLC
  GI50: 1.52 µM
  TGI: 3.07 µM
SK-MEL-28 melanoma
  GI50: 1.75 µM
  TGI: 3.18 µM
SR leukemia
  GI50: 3.42 µM
  TGI: > 27.3 µM
SNB-75 CNS
  GI50: 1.91 µM
  TGI: 4.91 µM
RXF 393 renal
  GI50: 1.59 µM
  TGI: 2.95 µM
ACHN renal
  GI50: 1.57 µM
  TGI: 2.94 µM
OVCAR-5 ovarian
  GI50: 2.03 µM
  TGI: 4.18 µM
SF-295 CNS
  GI50: 4.8 µM
  TGI: 15.9 µM
OVCAR-3 ovarian
  GI50: 1.39 µM
  TGI: 2.69 µM
CCRF-CEM leukemia
  GI50: 2.45 µM
  TGI: 7.96 µM
SK-MEL-2 melanoma
  GI50: 3.15 µM
  TGI: 7.96 µM
OVCAR-4 ovarian
  GI50: 1.59 µM
  TGI: 2.95 µM
KM12 colon
  GI50: 5.27 µM
  TGI: 16.7 µM
NCI-H226 lung
  GI50: 3.31 µM
  TGI: 10.4 µM
COLO 205 colon
  GI50: 1.51 µM
  TGI: 2.9 µM
A498 renal
  GI50: 0.0132 µM
  TGI: 4.25 µM
SF-268 CNS
  GI50: 2.82 µM
  TGI: 10.9 µM
SK-OV-3 ovarian
  GI50: 9.11 µM
  TGI: 22.4 µM
A549 NSCLC
  GI50: 3.42 µM
  TGI: 11.2 µM
UACC-257 melanoma
  GI50: 1.73 µM
  TGI: 3.2 µM
SW-620 colon
  GI50: 1.67 µM
  TGI: 3.23 µM
HCT-116 colon
  GI50: 1.42 µM
  TGI: 2.75 µM
EKVX NSCLC
  GI50: 3.05 µM
  TGI: 11 µM
HOP-62 NSCLC
  GI50: 2.04 µM
  TGI: 5.12 µM
NCI-H460 lung
  GI50: 2.95 µM
  TGI: 9.47 µM
TK-10 renal
  GI50: 1.71 µM
  TGI: 3.29 µM
786-0 renal
  GI50: 1.77 µM
  TGI: 3.39 µM
SK-MEL-5 melanoma
  GI50: 1.55 µM
  TGI: 2.93 µM
BT-549 breast
  GI50: 1.97 µM
  TGI: 4.75 µM
LOX IMVI melanoma
  GI50: 1.6 µM
  TGI: 3 µM
NCI-H23 lung
  GI50: 1.72 µM
  TGI: 3.65 µM
OVCAR-8 ovarian
  GI50: 1.74 µM
  TGI: 3.59 µM
U251 CNS
  GI50: 1.72 µM
  TGI: 3.28 µM
MOLT-4 leukemia
  GI50: 2.2 µM
  TGI: 8.26 µM
UACC-62 melanoma
  GI50: 1.65 µM
  TGI: 3.11 µM
HT29 colon
  GI50: 1.94 µM
  TGI: 3.7 µM
DU-145 prostate
  GI50: 1.74 µM
  TGI: 3.11 µM
MCF7 breast
  GI50: 1.45 µM
  TGI: 3.16 µM
NCI/ADR-RES ovarian
  GI50: 2.03 µM
  TGI: 4.57 µM
NCI-H522 lung
  GI50: 0.38 µM
  TGI: 1.64 µM
SF-539 CNS
  GI50: 2.08 µM
  TGI: 4.47 µM
HL-60(TB) leukemia
  GI50: 2.39 µM
  TGI: 5.84 µM
K-562 leukemia
  GI50: 1.65 µM
  TGI: 7.57 µM
HCC-2998 colon
  GI50: 2.05 µM
  TGI: 4.51 µM
RPMI-8226 leukemia
  GI50: 3.09 µM
  TGI: 9.61 µM
M14 melanoma
  GI50: 1.78 µM
  TGI: 3.23 µM
SNB-19 CNS
  GI50: 4.08 µM
  TGI: 15.3 µM
MDA-MB-435
  GI50: 1.95 µM
  TGI: 3.6 µM
PC-3 prostate
  GI50: 3.45 µM
  TGI: 8.91 µM
MALME-3M melanoma
  GI50: 1.81 µM
  TGI: 3.51 µM
CAKI-1 renal
  GI50: 1.77 µM
  TGI: 3.39 µM
MDA-MB-231 breast
  GI50: 1.84 µM
  TGI: 3.99 µM
UO-31 renal
  GI50: 1.22 µM
  TGI: 2.63 µM
HS 578T breast
  GI50: 1.84 µM
  TGI: 4.84 µM
IGROV1 ovarian
  GI50: 1.88 µM
  TGI: 4.32 µM
HCT-15 colon
  GI50: 1.77 µM
  TGI: 3.41 µM
SN12C renal
  GI50: 1.61 µM
  TGI: 3.08 µM
T-47D breast
  GI50: 0.789 µM
  TGI: 2.73 µM
